Source: US20240350647A1, “STING SENSITIZING AGENTS” (STipe Therapeutics ApS, priority 2023, published 2024)
Where a SMILES comes first, the peptide text is derived from it. Bridges are numbered along the chain shown (N, C = ends). Where no end group is shown, it is not given here. [ ]: non-standard residue; d: D form. The star is where a group is joined. C16 diacid = O=C(O)CCCCCCCCCCCCCCC(=O)*; AEEA = NCCOCCOCC(=O)O

Tests used:
FIG. 10A = assay: FIG. 10A
Protocol: Table printed on a drawing sheet, FIG. 10A
(§1) The patent's description of the figure: FIGS. 10A-10C. Pharmacokinetic profile and parameter for peptides after intravenous administration. FIG. 10A) Mouse PK data (10 mg/kg, bolus IV, n=3 per timepoint). FIG. 10B) Rat PK data (10 mg/kg, bolus IV, n=3 per timepoint). FIG. 10C) Non-human primate (NHP) PK data (4 mg/kg, 30 min IV infusion, n=3). Error bars represent the standard deviation (SD).
First reader's note: Mouse PK parameters; the legend of the plot on the same sheet gives 10 mg/kg (IV) for both agents.

FIG. 10B = assay: FIG. 10B
Protocol: Table printed on a drawing sheet, FIG. 10B
as §1
First reader's note: Rat PK parameters; the plot legend on the same sheet gives 10 mg/kg (IV) for both agents, and the top-left cell 'PK parameters / rat' spans the first two rows.

FIG. 10C = assay: FIG. 10C
Protocol: Table printed on a drawing sheet, FIG. 10C
as §1
First reader's note: The species NHP stands in the head column of row 2, and the plot legend on the same sheet gives the dosing as 4 mg/kg (30-min IV) for both agents.

FIG. 9 = assay: FIG. 9
Protocol: Table printed on a drawing sheet, FIG. 9
The patent's description of the figure: FIG. 9. In vitro metabolic stability in blood.
First reader's note: Each column is one agent and each row gives its half-life in blood of one species at 37 °C; the test concentration is printed in the row label, or in the cells for human.

IFN-β = assay: Stimulation and sensitization assay in THP1 cells, IFN-β release (ELISA); format: cell-based, human; conditions: with 2 μM Agent 1
Protocol: THP1 cells were purchased from ATCC (TIB-202™) and cultured in RPMI 1640 supplemented with 10% FBS and 1% Penicillin/Streptomycin (P/S) at 37° C. and 5% CO2. Passaging of THP1 cells was kept below 20 passages.
ADU-S100 was dissolved according to manufacturer's protocol (tlrl-nacda2r) to 0.5 mg/mL in LAL and subsequently diluted in R10. diABZI Compound 3 was diluted from a 1 mM stock in 100% DMSO into R10. Agent 1 was dissolved to a stock solution of 1250 μM in 50% DMSO, 25 mM HEPES. Concentration of dissolved Agent 1 was determined by A280 measurement using Synergy HI (Biotek Gen5 SW). Subsequently, Agent 1 dilutions were prepared in RPMI 1640, 10% FBS, 1% P/S (R10).
Concentrations of CXCL10 and IFN-β in the collected supernatants were determined by Duo-Set ELISA from R&D. Absorbance measurements at 450/570 nm and quantification were done using Synergy HI plate reader (Biotek Gen5 SW), Microsoft Excel and GraphPad prism v. 9.3.1.
Data analysis and statistical analysis were done using GraphPad prism 9.3.1. […]
Dip: is the plateau in the middle of the curve, corresponding to EMax, same unite as y-axis. The EMax determined here are not derived from this regression, due to the limitations using bell shaped dose response. Instead, EMax-values were determined as the maximum response at any given STING agonist concentration for both IFN-β and CXCL10 from all experiments. […]

CD4+ T cells = assay: Dendritic Cell-T cell (DC-T) proliferation assay (ProImmune); conditions: 22 donors; Percentage Stimulation above Background ≥0.5%, SEM=2; peptides 0.34 μM
Excerpt: A panel of peripheral blood mononuclear cell (PBMC) samples from healthy human donors was selected from the ProImmune Ltd (UK) cell bank. Each PBMC sample was HLA (Human Leukocyte Antigen)-typed and stored in liquid nitrogen (vapor-phase) prior to use. The panel was selected so that HLA class II alleles known to be highly expressed in the global population were well represented (data not shown). Donors were predominantly selected by DRB1 allele expression.
A Dendritic Cell-T cell (DC-T) proliferation assay (ProImmune Ltd) was used to identify the presence or potential T cell epitopes within the peptides. Adherent donor PBMCs were cultured with appropriate growth factors to generate monocyte-derived DCs. DCs were then loaded with a control (control 1 and control 2), the peptide (Agent 1, Agent 2, and Agent 3, see FIG. 8A) or left untreated. The peptides were loaded at a final concentration of 0.34 μM.
Mature antigen-loaded DCs were then co-cultured at a fixed ratio with autologous CFSE-labelled T cells in multi-well plates. Each test condition was set up in eight replicate wells and cells were incubated for 7 days. At the end of the incubation period, cell samples were stained with anti-CD4 antibody, then washed and fixed for by flow cytometric analysis. Proliferation was determined by measuring a decrease in CFSE intensity.
Data were compiled to determine antigen-induced proliferation per individual donor, calculated as Percentage Stimulation above Background. The frequency of positive donor cell responses (Percentage Antigenicity) was calculated as the proportion of responding donors out of total donors. Values were then standardized against the strength of response (an average of the Percentage Stimulation value obtained across accepted donors for each protein) to give a response index (RI).
Data obtained by flow cytometric evaluation of cell samples was analyzed using FlowJo Software (Tree Star, Inc.). The number of CFSE-dim (i.e., proliferating) cells was determined for each sample in eight replicate wells. Counts for the CD4^+ CFSE dim population in each sample were expressed as a proportion of the total CD4^+ population. The eight replicate values were then used to calculate Percentage Stimulation above Background (proportion of CD4^+ CFSE dim cells with antigen stimulation minus the proportion of CD4^+ CFSE dim cells without antigen stimulation).
Background threshold values are based on data from unstimulated cells for which a maximum acceptable resting proliferation threshold is established.
In evaluating antigenicity, it is also appropriate to take account of the frequency of donor cell responses across the study cohort. A positive response (Percentage Stimulation above Background ≥0.5%) in 2 or more independent donor samples is considered indicative of a potential T cell epitope.
Depending on the size of the study, (20, 40 or 50 donors), two responding donors sets a threshold of 10%, 5% or 4% respectively. Thus, following calculation of Percentage Stimulation above Background, the frequency of positive donor cell responses (Percentage Antigenicity) is expressed as the proportion of responding donors out of total accepted donors screened.
When calculating the antigenicity of a protein it is important to consider the strength of a response as well as the frequency of that response. This is because some binding responses may be pan-allele, but these responses may not be very strong. The strength of positive donor cell responses was determined by taking an average of the percentage stimulation value obtained across accepted donors for each protein. Determining a Response Index (RI) through the multiplication of strength and frequency values is more representative of the level of antigenicity.

Question: What does the source list for “KKYKNIVLLKGLEVINDYHFGRKKRRQRRRPQ-NH2 [Agent 2]”?
Answer: AUC0-inf (FIG. 10A): 0.373 µg·h/mL; Clobs (FIG. 10A): 26.8 L/h/kg; C0 (FIG. 10A; mouse, in vivo, iv, 10 mg/kg): 3.91 µg/mL; AUC0-inf (FIG. 10B): 0.225 µg·h/mL; Clobs (FIG. 10B): 44.5 L/h/kg; C0 (FIG. 10B; rat, in vivo, iv, 10 mg/kg): 1.73 µg/mL; AUC0-inf (ng·h/mL) (FIG. 10C): 1,250 ng·h/mL; C0 (ng/mL) (FIG. 10C): 2,760 ng/mL; Clobs (FIG. 10C): 3.23 L/h/kg

Question: With `CC[C@H](C)[C@H](NC(=O)[C@H](CC(N)=O)NC(=O)[C@H](CCCCN)NC(=O)[C@H](C)NC(=O)[C@H](CCCCN)NC(=O)[C@H](CCCCN)NC(=O)COCCOCCNC(=O)COCCOCCNC(=O)CCCCCCCCCCCCCCC(=O)O)C(=O)N[C@H](C(=O)N[C@@H](CC(C)C)C(=O)N[C@@H](CC(C)C)C(=O)N[C@@H](CCCCN)C(=O)NCC(=O)N[C@@H](CC(C)C)C(=O)N[C@@H](CCC(=O)O)C(=O)N[C@H](C(=O)N[C@H](C(=O)N[C@@H](CC(N)=O)C(=O)N[C@@H](CC(=O)O)C(=O)N[C@@H](Cc1c[nH]c2ccccc12)C(=O)N[C@@H](Cc1c[nH]cn1)C(=O)N[C@@H](Cc1ccccc1)C(=O)N[C@H]1CSSC[C@@H](C(N)=O)NC(=O)[C@@H](CCCNC(=N)N)NC(=O)[C@H](CCCNC(=N)N)NC(=O)[C@@H](CCCCN)NC(=O)[C@H](CCCCN)NC(=O)[C@@H](CCCNC(=N)N)NC(=O)CNC(=O)[C@@H](CCCNC(=N)N)NC(=O)[C@H](CCCNC(=N)N)NC(=O)[C@@H](CCCNC(=N)N)NC1=O)[C@@H](C)CC)C(C)C)C(C)C` [Agent 1 T½ (min)] ({C16 diacid-AEEA-AEEA}-KKAKNIVLLKGLEVINDWHFC[dR]R[dR]G[dR]K[dK]R[dR]C-NH2; disulfide 21-31) as the compound, how does the “Mouse (@ 5.0 µg/mL)” value (FIG. 9) read?
Answer: 174 min

Question: And the “NHP (@ 4.4 µg/mL)” value (FIG. 9)?
Answer: 172 min

Question: And the “Rat (@ 5.0 µg/mL)” value (FIG. 9)?
Answer: 86 min

Question: With `Nc1nc2c(ncn2[C@@H]2O[C@@H]3COP(=O)(O)O[C@H]4[C@@H](O)[C@H](n5cnc6c(N)ncnc65)O[C@@H]4COP(=O)(O)O[C@@H]2[C@@H]3O)c(=O)[nH]1` [2′3′-cGAMP, cyclic 2′3′ GMP-AMP] as the compound, how does the “EC50 of cGAMP for IFN expression” value (IFN-β) read?
Answer: around 20 μg/mL

Question: With “KKYKNIVLLKGLEVINDYHFGRKKRRQRRRPQ-NH2 [Agent 2 T½ (min)]” as the compound, how does the “Mouse (@ 5.0 µg/mL)” value (FIG. 9) read?
Answer: 4 min

Question: And the “Rat (@ 5.0 µg/mL)” value (FIG. 9)?
Answer: 3 min

Question: With `CC[C@H](C)[C@H](NC(=O)[C@H](CC(N)=O)NC(=O)[C@H](CCCCN)NC(=O)[C@H](C)NC(=O)[C@H](CCCCN)NC(=O)[C@@H](N)CCCCN)C(=O)N[C@H](C(=O)N[C@@H](CC(C)C)C(=O)N[C@@H](CC(C)C)C(=O)N[C@@H](CCCCN)C(=O)NCC(=O)N[C@@H](CC(C)C)C(=O)N[C@@H](CCC(=O)O)C(=O)N[C@H](C(=O)N[C@H](C(=O)N[C@@H](CC(N)=O)C(=O)N[C@@H](CC(=O)O)C(=O)N[C@@H](Cc1c[nH]c2ccccc12)C(=O)N[C@@H](Cc1c[nH]cn1)C(=O)N[C@@H](Cc1ccccc1)C(=O)N[C@H]1CSSC[C@@H](C(N)=O)NC(=O)[C@@H](CCCNC(=N)N)NC(=O)[C@H](CCCNC(=N)N)NC(=O)[C@@H](CCCCN)NC(=O)[C@H](CCCCN)NC(=O)[C@@H](CCCNC(=N)N)NC(=O)CNC(=O)[C@@H](CCCNC(=N)N)NC(=O)[C@H](CCCNC(=N)N)NC(=O)[C@@H](CCCNC(=N)N)NC1=O)[C@@H](C)CC)C(C)C)C(C)C` [Agent 3] (H-KKAKNIVLLKGLEVINDWHFC[dR]R[dR]G[dR]K[dK]R[dR]C-NH2; disulfide 21-31; N-terminus assumed) as the compound, how does the “Response Index (RI)” value (CD4+ T cells) read?
Answer: 0.306

Question: And the percentage antigenicity (CD4+ T cells)?
Answer: 22.73%

Question: With “KKYKNIVLLKGLEVINDYHFGRKKRRQRRRPQ-NH2 [Agent 2, reference compound]” as the compound, how does the “Response Index (RI)” value (CD4+ T cells) read?
Answer: 0.445

Question: And the percentage antigenicity (CD4+ T cells)?
Answer: 31.82%
